Results from patent US9156811B2 (priority 2008, dated 2015).
Where two headings read alike, the source gives them in different places.

Assays:
[1] = tested on: Trypanosome (T. brucei brucei); test: In-vitro antitrypanosomal efficacy assay (cell growth, resazurin); assay type: cell-based
Procedure: To column 12, 200 μl media was added to provide a no cells control. Plates were then incubated at 37° C. in an atmosphere of 5% CO2 for 69 hours, before the addition of 20 μl of 500 μM rezasurin solution, and a further incubation period of 4 hours. […] Concentration effect curves were fitted using non-linear regression using XLFit 4.2 and EC50 values determined.

human NMT-1 = human NMT-1 (Homo sapiens (Human), UniProt P30419); test: NMT enzyme inhibition scintillation proximity assay, human NMT-1; assay type: biochemical
[2] = target: T. brucei N-myristoyl transferase (Trypanosoma brucei brucei (strain 927/4 GUTat10.1), UniProt Q388H8); test: biochemical; assay type: biochemical
[3] = target: L. major N-myristoyl transferase (Leishmania major, UniProt Q4Q5S8); assay type: biochemical; settings: Leishmania major NMT; value in parentheses; read-out: IC50 (μM) NMT Enzyme (LmNMT)
[4] = value with no enzyme tag in the cell, taken as T. brucei NMT, read-out: IC50 (μM) NMT Enzyme
[5] = T. brucei brucei, blood stream form, variant 221
[6] = Human NMT-1, value in parentheses, read-out: IC50 (μM) NMT Enzyme (HuNMT-1)
[7] = T. brucei NMT, value without parentheses, read-out: IC50 (μM) NMT Enzyme (T. brucei NMT)
[8] = read-out: IC50 (μM) NMT Enzyme (T. brucei NMT)

Chain of L. major N-myristoyl transferase (Q4Q5S8 1-421): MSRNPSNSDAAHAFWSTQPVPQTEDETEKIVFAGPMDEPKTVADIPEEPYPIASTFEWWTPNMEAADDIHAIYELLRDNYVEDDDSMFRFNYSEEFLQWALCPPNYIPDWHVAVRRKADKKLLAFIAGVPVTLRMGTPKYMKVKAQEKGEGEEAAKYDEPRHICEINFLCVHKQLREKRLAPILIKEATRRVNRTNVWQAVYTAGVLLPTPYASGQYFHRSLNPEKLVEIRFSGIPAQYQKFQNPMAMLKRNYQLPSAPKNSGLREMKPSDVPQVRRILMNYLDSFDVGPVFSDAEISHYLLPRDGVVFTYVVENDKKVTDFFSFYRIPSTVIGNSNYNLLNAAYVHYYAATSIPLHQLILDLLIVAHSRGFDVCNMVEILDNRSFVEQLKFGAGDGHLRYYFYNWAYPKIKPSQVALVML
Chain of T. brucei N-myristoyl transferase (Q388H8 1-446): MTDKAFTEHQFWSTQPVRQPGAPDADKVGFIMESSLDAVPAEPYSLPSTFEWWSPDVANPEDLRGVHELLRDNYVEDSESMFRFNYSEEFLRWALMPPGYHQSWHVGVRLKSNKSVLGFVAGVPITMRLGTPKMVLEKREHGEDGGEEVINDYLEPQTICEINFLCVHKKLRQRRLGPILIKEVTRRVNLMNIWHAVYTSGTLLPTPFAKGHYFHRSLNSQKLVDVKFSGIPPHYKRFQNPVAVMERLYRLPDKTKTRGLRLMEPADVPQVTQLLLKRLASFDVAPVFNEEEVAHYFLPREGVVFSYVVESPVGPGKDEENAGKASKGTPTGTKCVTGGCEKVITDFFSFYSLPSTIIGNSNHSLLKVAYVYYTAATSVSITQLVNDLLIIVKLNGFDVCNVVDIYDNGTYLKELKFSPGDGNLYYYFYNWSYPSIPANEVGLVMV
Chain of human NMT-1 (P30419 whole entry): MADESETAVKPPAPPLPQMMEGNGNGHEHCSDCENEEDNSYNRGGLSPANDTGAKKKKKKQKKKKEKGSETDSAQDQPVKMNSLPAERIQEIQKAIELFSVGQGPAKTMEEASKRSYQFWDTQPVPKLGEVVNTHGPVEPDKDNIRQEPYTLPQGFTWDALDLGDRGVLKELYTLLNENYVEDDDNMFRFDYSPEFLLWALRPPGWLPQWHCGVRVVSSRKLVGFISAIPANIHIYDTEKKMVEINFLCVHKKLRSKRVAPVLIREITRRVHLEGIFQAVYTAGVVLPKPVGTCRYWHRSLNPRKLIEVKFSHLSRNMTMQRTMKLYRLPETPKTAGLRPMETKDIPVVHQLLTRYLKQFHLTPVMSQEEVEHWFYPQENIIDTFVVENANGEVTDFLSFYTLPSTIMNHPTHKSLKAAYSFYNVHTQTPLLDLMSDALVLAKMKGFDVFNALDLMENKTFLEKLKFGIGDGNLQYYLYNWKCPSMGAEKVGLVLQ

Row | SMILES | ED50 (μM) T. brucei ([1]; T. brucei cell growth) | IC50 (human NMT-1; HuNMT-1) | IC50 [2, 4] | ED50 (μM) T. brucei [1, 5] | IC50 (human NMT-1; [6]) | IC50 [2, 7] | IC50 [3] | IC50 [2, 8]
1 | Cc1nn(C)c(C)c1N(C)[S+](=O)([O-])c1ccc(CCCN2CCN(C)CC2)cc1 [DDD90115] | 2.21 µM | 6.1 µM | 0.26 µM |  |  |  |  | 
2 | Cc1c(N(C)[S+](=O)([O-])c2ccc(CCCN3CCN(C)CC3)cc2)c(CC(C)C)nn1C [DDD90143] | 0.81 µM | 1.37 µM | 0.082 µM |  |  |  |  | 
3 | Cc1nn(C)c(C)c1N(C)[S+](=O)([O-])c1ccc(CCCC2CCN(Cc3ccccc3)CC2)cc1 [DDD90152] | >1 µM | > 1 µM | 0.5 µM |  |  |  |  | 
4 | Cc1nn(C)c(C)c1N(C)[S+](=O)([O-])c1ccc(CCCC2CCN(C(C)C)CC2)cc1 [DDD90153] | >1 µM | > 1 µM | 0.31 µM |  |  |  |  | 
5 | Cc1nn(C)c(C)c1N(C)[S+](=O)([O-])c1ccc(CCCC2CCN(CC3CC3)CC2)cc1 [DDD90155] | 4.0 µM | > 1 µM | > 1 µM |  |  |  |  | 
6 | Cc1nn(C)c(C)c1N(C)[S+](=O)([O-])c1ccc(CCCCCn2ccnc2)cc1 [DDD99735] | >1 µM | 2.9 µM | 0.83 µM |  |  |  |  | 
7 | CCN(C)Cc1cccc(-c2ccc([S+](=O)([O-])Nc3c(CC(C)C)nn(C)c3C)cc2)c1 [DDD99741] | 0.047 µM | 0.021 µM | 0.005 µM |  |  |  |  | 
8 | Cc1nn(C)c(C)c1N(C)[S+](=O)([O-])c1ccc(CCCCN(C)C)cc1 [DDD99745] | >1 µM | > 10 µM | 2.1 µM |  |  |  |  | 
9 | Cc1nn(C)c(C)c1N(C)[S+](=O)([O-])c1ccc(CCCCn2ccnc2)cc1 [DDD99746] | >1 µM | > 10 µM | 2 µM |  |  |  |  | 
10 | Cc1nn(C)c(C)c1N(C)[S+](=O)([O-])c1ccc(CCCN(C)C)cc1 [DDD99749] | >1 µM | > 1 µM | 0.45 µM |  |  |  |  | 
11 | Cc1nn(C)c(C)c1N(C)[S+](=O)([O-])c1ccc(CCCn2ccnc2)cc1 [DDD99750] | >1 µM | > 1 µM | > 1 µM |  |  |  |  | 
12 | Cc1c(N[S+](=O)([O-])c2ccc(-c3cccc(CN4CCC(N(C)C)C4)c3)cc2)c(CC(C)C)nn1C (centres unmarked) [DDD99821] | 0.59 µM | 3.8 µM | 0.16 µM |  |  |  |  | 
13 | CCc1nn(C)c(CC)c1NS(=O)(=O)c1c(Cl)cc(Br)cc1Cl [DDD99835] |  |  |  | >1 µM | > 1 µM | 0.38 µM |  | 
14 | Cc1c(N[S+](=O)([O-])c2ccc(-c3cccc(CNCCc4ccccc4)c3)cc2)c(CC(C)C)nn1C [DDD100139] |  |  |  | >1 µM | 2.3 µM | 1.4 µM |  | 
15 | Cc1c(N[S+](=O)([O-])c2ccc(-c3cccc(CNC4CCCC4)c3)cc2)c(CC(C)C)nn1C [DDD100146] |  |  |  | >1 µM | 2.3 µM | 0.36 µM |  | 
16 | Cc1nn(C)c(C)c1N(CC(F)F)[S+](=O)([O-])c1c(Cl)cc(Br)cc1Cl [DDD100147] |  |  |  | >1 µM | > 10 µM | 3.2 µM |  | 
17 | Cc1nn(C)c(C)c1N(CC(F)(F)F)[S+](=O)([O-])C1=C(Cl)C=C(CCCN2CCCNCC2)CC1Cl (centres unmarked) [DDD100148] |  |  |  | 0.018 µM | 0.21 µM | 0.008 µM |  | 
18 | Cc1nn(C)c(C)c1N(CC(F)(F)F)[S+](=O)([O-])c1c(Cl)cc(CCCN2CCN(C)CC2)cc1Cl [DDD100149] |  |  |  | 0.132 µM | 2.4 µM | 0.014 µM |  | 
19 | Cc1c(N[S+](=O)([O-])c2ccc(-c3cccc(CNCc4ccccc4)c3)cc2)c(CC(C)C)nn1C [DDD100150] |  |  |  | >1 µM | 4 µM | 1.3 µM |  | 
20 | Cc1nn(C)c(C)c1N(C(F)F)[S+](=O)([O-])c1c(Cl)cc(CCCCCCn2ccnc2)cc1Cl [DDD100156] |  |  |  | 0.148 µM | 1.1 µM |  | 0.048 µM | 0.016 µM

Row | SMILES | ED50 (μM) T. brucei ([1]; T. brucei cell growth) | IC50 (human NMT-1; HuNMT-1) | IC50 [2, 4] | ED50 (μM) T. brucei [1, 5] | IC50 (human NMT-1; [6]) | IC50 [2, 7] | IC50 [3] | IC50 [2, 8]
21 | Cc1nn(C)c(C)c1N(CC(F)F)[S+](=O)([O-])c1c(Cl)cc(CCCN2CCN(C)CC2)cc1Cl [DDD100163] |  |  |  | 0.125 µM | 1.7 µM | 0.014 µM |  | 
22 | Cc1nn(C)c(C)c1N(C(F)F)[S+](=O)([O-])c1c(Cl)cc(CCCCCCn2ccnc2C(C)C)cc1Cl [DDD100791] |  |  |  | 0.344 µM | 2.1 µM |  | 0.044 µM | 0.21 µM
23 | Cc1c(N[S+](=O)([O-])c2ccc(-c3cccc(CNCc4cccnc4)c3)cc2)c(CC(C)C)nn1C [DDD100793] |  |  |  | 0.54 µM |  | 0.026 µM | 1.4 µM | 
24 | Cc1c(N[S+](=O)([O-])c2ccc(-c3cccc(CN(C)Cc4cccnc4)c3)cc2)c(CC(C)C)nn1C [DDD100796] |  |  |  | >1 µM | > 1 µM | 0.86 µM | > 1 µM | 
25 | Cc1c(N[S+](=O)([O-])c2ccc(-c3cccc(CNC(C)C)c3)cc2)c(CC(C)C)nn1C [DDD100799] |  |  |  | 0.293 µM |  | 0.02 µM | 0.47 µM | 
26 | Cc1c(N[S+](=O)([O-])c2ccc(-c3ccc4c(c3)CNCC4)cc2)c(CC(C)C)nn1C [DDD100801] |  |  |  | 0.014 µM |  | 0.004 µM | 0.011 µM | 
27 | Cc1c(N[S+](=O)([O-])c2ccc(-c3cccc(CN4CCCC4C)c3)cc2)c(CC(C)C)nn1C (centres unmarked) [DDD100804] |  |  |  | 0.035 µM |  | 0.006 µM | 0.077 µM | 
28 | Cc1c(N[S+](=O)([O-])c2ccc(-c3ccc(F)c(CN4CCCC4)c3)cc2)c(CC(C)C)nn1C [DDD100806] |  |  |  | 0.033 µM |  | 0.004 µM | 0.224 µM | 
29 | Cc1c(N[S+](=O)([O-])c2ccc(-c3ccccc3CN(C)C)cc2)c(CC(C)C)nn1C [DDD100862] |  |  |  | >1 µM |  | 0.358 µM | > 1 µM | 
30 | Cc1c(N[S+](=O)([O-])c2ccc(-c3cccc(C(C)(C)N(C)C)c3)cc2)c(CC(C)C)nn1C [DDD100863] |  |  |  | 0.015 µM |  | 0.006 µM | 0.091 µM | 
31 | Cc1c(N[S+](=O)([O-])c2ccc(-c3ccc(CN(C)C)cc3)cc2)c(CC(C)C)nn1C [DDD100865] |  |  |  | 7.3 µM |  | 0.097 µM | 1.9 µM | 
32 | CCCCc1nn(C)c(C)c1N[S+](=O)([O-])c1ccc(-c2cccc(CN(C)C)c2)cc1 [DDD100866] |  |  |  | 3.2 µM |  | 0.01 µM | 0.054 µM | 
33 | CCCc1nn(C)c(C)c1N[S+](=O)([O-])c1ccc(-c2cccc(CN(C)C)c2)cc1 [DDD100867] |  |  |  | 0.048 µM |  | 0.006 µM | 0.074 µM | 
34 | Cc1c(N[S+](=O)([O-])c2ccc(-c3cccc(CNCCc4cccnc4)c3)cc2)c(CC(C)C)nn1C [DDD100869] |  |  |  | 5.7 µM |  | 0.004 µM | 0.019 µM | 
35 | CCCc1nn(C)c(C)c1N[S+](=O)([O-])c1ccc(Br)cc1 [DDD100871] |  |  |  | 51.0 µM | > 1 µM | 7.95 µM | > 1 µM | 
36 | Cc1nn(C)c(C)c1N[S+](=O)([O-])c1ccc(-c2cccc(-c3cn(C)cn3)c2)cc1 [DDD100873] |  |  |  | >1 µM | > 1 µM | 13.8 µM | > 1 µM | 
37 | Cc1c(N[S+](=O)([O-])c2ccc(-c3ccc4c(c3)CN(C)CC4)cc2)c(CC(C)C)nn1C [DDD100876] |  |  |  | 0.014 µM |  | 0.006 µM | 0.059 µM | 
38 | Cc1c(N[S+](=O)([O-])c2ccc(CCCC3CCN(C)CC3)cc2)c(Cc2ccccc2)nn1C [DDD100881] |  |  |  | 0.234 µM |  | 0.02 µM | 0.778 µM | 
39 | Cc1c(N[S+](=O)([O-])c2ccc(-c3cccc(CNCCc4ccccn4)c3)cc2)c(CC(C)C)nn1C [DDD100882] |  |  |  | 2.45 µM |  | 0.305 µM | > 1 µM | 
40 | Cc1c(N[S+](=O)([O-])c2ccc(-c3cccc(CN(C)C)c3)cc2)c(CCc2ccccc2)nn1C [DDD100885] |  |  |  | 9.72 µM |  | 0.032 µM | 0.211 µM | 
